Experimental data as given in ChEMBL document CHEMBL1201862, “PubChem BioAssay data set” (2004).
Active and inactive are the calls of the source.

How the values were obtained:
[1] = test system: Staphylococcus aureus; assay: Inhibitors of Bacterial Quorum Sensing Structure Activity Relationship (SAR) Analysis: Dose Response Assay. [Related pubchem assays: 700, 527 ]; assay type: functional, organism-based
[2] = test system: Streptococcus; assay: GAS UMAA2166 growth inhibition – luminescence, BacTiterGlo, counter-screen for streptokinase expression inhibitor project, dose response (AID 1915); assay type: functional, organism-based;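 also: potency for reduction of bacterial viability or growth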
[3] = loss of viability in HepG2 cells – cell-based, CellTiter-Glo, cherry-picked, cytotoxicity control for Shn3 inhibitor project, dose response (AID 624134); assay type: functional
[4] = target: T1, Fatty acid synthase (Homo sapiens, UniProt P49327); assay: inhibition of human FAS-TE enzyme activity – biochemical, endpoint fluorescence intensity, uHTS hits, dose response (AID 624327); assay type: functional;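 also: fluorescence from hydrolysis of an O-methyl fluorescein acyl ester substrate by the enzyme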
T1 sequence (P49327 whole entry): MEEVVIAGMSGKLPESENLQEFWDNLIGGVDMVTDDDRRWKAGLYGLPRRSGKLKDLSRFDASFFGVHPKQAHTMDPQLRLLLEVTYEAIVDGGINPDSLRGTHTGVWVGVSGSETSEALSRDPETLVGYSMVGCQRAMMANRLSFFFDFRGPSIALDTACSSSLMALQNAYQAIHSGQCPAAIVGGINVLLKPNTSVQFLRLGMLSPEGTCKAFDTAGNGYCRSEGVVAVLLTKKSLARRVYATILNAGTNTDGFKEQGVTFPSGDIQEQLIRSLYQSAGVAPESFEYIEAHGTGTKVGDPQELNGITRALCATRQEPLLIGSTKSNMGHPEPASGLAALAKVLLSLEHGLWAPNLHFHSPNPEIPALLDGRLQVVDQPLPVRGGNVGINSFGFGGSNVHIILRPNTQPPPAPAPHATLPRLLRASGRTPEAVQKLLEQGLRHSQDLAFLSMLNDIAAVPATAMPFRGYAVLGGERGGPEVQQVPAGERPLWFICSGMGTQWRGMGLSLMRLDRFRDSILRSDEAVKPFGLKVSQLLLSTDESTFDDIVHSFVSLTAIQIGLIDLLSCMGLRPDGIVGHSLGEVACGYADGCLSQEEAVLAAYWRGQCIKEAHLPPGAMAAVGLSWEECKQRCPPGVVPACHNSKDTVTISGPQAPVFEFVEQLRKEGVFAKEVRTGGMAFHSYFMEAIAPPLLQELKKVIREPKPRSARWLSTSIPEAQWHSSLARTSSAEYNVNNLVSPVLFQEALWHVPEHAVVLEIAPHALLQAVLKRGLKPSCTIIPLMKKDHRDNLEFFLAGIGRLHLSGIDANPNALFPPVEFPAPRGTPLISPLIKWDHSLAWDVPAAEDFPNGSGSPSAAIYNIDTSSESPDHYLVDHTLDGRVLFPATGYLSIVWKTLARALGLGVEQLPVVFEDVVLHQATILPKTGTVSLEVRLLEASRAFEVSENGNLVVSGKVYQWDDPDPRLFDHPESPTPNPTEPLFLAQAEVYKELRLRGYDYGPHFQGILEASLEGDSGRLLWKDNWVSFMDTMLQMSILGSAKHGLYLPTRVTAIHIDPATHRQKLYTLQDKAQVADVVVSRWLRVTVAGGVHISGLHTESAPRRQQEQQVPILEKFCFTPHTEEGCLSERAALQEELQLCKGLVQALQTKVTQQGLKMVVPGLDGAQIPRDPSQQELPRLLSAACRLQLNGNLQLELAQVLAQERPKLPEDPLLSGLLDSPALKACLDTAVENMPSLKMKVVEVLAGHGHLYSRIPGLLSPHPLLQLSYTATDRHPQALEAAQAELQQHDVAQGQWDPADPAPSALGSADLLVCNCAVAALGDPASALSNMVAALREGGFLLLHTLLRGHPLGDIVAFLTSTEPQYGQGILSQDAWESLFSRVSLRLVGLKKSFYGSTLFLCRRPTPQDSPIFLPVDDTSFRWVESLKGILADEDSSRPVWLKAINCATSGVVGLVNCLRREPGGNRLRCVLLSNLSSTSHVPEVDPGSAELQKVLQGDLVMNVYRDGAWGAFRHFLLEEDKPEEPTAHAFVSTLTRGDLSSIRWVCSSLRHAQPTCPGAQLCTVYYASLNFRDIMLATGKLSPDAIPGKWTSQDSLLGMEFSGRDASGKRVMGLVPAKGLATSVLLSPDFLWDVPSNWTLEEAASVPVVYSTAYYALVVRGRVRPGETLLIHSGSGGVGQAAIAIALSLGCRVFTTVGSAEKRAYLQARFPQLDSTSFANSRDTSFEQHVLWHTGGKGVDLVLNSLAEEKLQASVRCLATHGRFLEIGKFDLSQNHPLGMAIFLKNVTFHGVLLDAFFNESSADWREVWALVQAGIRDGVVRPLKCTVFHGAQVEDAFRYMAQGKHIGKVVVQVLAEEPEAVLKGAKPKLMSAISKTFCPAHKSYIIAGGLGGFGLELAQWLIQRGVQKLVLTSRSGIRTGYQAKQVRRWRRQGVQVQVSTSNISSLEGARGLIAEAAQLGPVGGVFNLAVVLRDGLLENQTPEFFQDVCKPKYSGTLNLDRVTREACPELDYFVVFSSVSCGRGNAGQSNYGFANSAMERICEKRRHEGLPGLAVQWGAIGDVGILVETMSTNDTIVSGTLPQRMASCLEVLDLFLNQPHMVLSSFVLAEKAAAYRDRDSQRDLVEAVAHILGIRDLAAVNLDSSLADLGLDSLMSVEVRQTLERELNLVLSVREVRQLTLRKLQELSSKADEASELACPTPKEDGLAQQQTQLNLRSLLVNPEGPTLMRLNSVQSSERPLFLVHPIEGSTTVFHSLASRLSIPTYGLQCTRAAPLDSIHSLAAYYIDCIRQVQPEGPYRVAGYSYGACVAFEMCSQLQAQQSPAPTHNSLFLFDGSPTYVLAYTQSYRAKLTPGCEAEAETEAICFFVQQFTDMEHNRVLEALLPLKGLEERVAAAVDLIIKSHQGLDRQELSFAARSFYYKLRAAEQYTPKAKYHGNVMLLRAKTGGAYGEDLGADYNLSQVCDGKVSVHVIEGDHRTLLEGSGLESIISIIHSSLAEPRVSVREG

[5] = non-specific 3'UTR reporter inhibition in Clone20-Shn3RL – cell-based, Renilla luciferase, cherry-picked, counter-screen for Shn3 inhibitor project, dose response (AID 624133); assay type: functional
[6] = Fluorescence-based cell-based high throughput dose response assay for inhibitors of the interaction of nucleotide-binding oligomerization domain containing 2 (NOD2) and the receptor-interacting serine-threonine kinase 2 (RIPK2).; assay type: functional; settings: Homo sapiens
[7] = target: T1, Fatty acid synthase; assay: inhibition of human FAS-TE enzyme activity – biochemical, kinetic fluorescence intensity, dose response (AID 624326); assay type: functional;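 also: rate of fluorescence rise from hydrolysis of a fluorogenic O-methyl fluorescein ester substrate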
[8] = target: T2, Streptokinase A (Streptococcus pyogenes serotype M1, UniProt P10520); assay: viability-normalized secreted streptokinase activity reduction – plasminogen activation absorbance, OD405, dose response (AID 1914); assay type: functional, Streptococcus pyogenes M1 GAS;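 also: secreted streptokinase activity via plasminogen activation per viability signal from cell pellet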
T2 sequence (P10520 whole entry): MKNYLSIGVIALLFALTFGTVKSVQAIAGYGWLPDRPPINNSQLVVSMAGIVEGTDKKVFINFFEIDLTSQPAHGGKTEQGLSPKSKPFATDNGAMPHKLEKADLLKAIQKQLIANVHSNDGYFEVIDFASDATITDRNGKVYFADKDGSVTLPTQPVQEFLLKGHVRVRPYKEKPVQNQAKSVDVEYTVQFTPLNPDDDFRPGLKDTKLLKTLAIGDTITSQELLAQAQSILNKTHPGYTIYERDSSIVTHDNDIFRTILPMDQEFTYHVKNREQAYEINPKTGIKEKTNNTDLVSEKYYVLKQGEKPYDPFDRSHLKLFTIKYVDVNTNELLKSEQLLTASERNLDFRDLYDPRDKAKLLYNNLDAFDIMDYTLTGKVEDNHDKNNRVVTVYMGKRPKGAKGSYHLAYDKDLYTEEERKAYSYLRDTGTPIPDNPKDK

[9] = target: Heat shock protein HSP 90-alpha (Homo sapiens, UniProt P07900); assay type: functional, organism-based
[10] = target: Beta Lactamase (Pseudomonas aeruginosa, UniProt Q932Y6); assay: BLA reporter interference, concentration series – BLA reporter cells, FRET fluorescence, artefact control for NOD2-RIPK2 interaction inhibitor project, dose response (AID 651552); assay type: functional, cell-based
Chain of Beta Lactamase (Q932Y6 whole entry): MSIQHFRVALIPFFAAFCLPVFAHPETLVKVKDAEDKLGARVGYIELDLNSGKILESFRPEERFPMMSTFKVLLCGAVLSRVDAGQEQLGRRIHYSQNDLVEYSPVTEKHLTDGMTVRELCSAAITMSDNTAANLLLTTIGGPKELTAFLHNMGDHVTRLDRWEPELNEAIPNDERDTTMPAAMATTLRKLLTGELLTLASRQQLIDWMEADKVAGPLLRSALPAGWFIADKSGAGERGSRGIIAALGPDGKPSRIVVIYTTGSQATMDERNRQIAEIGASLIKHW

[11] = test system: Streptococcus; assay: Luminescence Microorganism-Based Dose Response Follow up to Identify Compounds Cytotoxic to Streptococcus. [Related pubchem assays: 1677 (Project Summary), 1915, 1914, 1902 (Retest at Dose), 1900 (Counter Screen), 1662 (Primary HTS)]; assay type: functional, organism-based
[12] = reduction of Shn3 3'UTR-driven luciferase in osteoblasts – cell-based, Clone20 osteoblasts, firefly luciferase, cherry-picked, dose response (AID 624132); assay type: functional;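 also: firefly luciferase luminescence from reporter carrying the Shn3 3'UTR in osteoblasts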
[13] = test system: Streptococcus sp. 'group A'; assay: Streptococcus pyogenes SK(-)GAS viability under kanamycin – luminescence, BacTiterGlo, confirmation, counter-screen for streptokinase expression inhibitor project, dose response (AID 1900); assay type: functional, organism-based
[14] = target: Acyl-homoserine lactone acylase PvdQ (Pseudomonas aeruginosa (strain LESB58), UniProt Q9I194); assay: PvdQ acylase enzyme activity blockers – biochemical, fluorescence, plate reader and imaging, cherry-picks, dose response (AID 493231)
[15] = test system: HEK293; assay: Fluorescence-based counterscreen for potentiators or agonists of NPY-Y2: cell-based high-throughput dose response assay to identify inhibitors of cyclic nucleotide gated ion channel (CNGC) activity. In this assay, the parental HEK293 cell line transfected with a cyclic-nucleotide gated ion channel (CNGC)-based cAMP sensor is used to measure inhibition of isoproterenol-induced CNGC activity by test compound.; assay type: functional; settings: Homo sapiens
[16] = target: T3, Neuropeptide Y receptor type 1 (Homo sapiens, UniProt P25929); assay: Fluorescence-based counterscreen for agonists of NPY-Y2: cell-based high-throughput dose response assay for agonists of NPY-Y1.; assay type: functional
T3 sequence (P25929 whole entry): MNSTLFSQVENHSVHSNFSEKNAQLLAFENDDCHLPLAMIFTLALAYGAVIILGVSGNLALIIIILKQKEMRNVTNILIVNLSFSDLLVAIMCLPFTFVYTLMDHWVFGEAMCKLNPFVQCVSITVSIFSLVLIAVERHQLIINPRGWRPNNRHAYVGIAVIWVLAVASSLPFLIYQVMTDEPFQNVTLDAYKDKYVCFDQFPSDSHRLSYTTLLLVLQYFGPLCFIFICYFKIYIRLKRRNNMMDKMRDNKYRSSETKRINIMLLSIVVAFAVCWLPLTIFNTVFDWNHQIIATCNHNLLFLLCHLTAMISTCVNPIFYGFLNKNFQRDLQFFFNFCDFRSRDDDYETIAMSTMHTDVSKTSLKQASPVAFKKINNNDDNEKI

[17] = target: T4, Aminopeptidase N (Plasmodium falciparum FcB1/Columbia, UniProt O96935); assay: malaria alanyl aminopeptidase activity blockers – biochemical, fluorogenic H-Leu-NHMec substrate, 1536-well (AID 1445); parameters: species or system Plasmodium falciparum 3D7, 3D7
T4 sequence (O96935 whole entry): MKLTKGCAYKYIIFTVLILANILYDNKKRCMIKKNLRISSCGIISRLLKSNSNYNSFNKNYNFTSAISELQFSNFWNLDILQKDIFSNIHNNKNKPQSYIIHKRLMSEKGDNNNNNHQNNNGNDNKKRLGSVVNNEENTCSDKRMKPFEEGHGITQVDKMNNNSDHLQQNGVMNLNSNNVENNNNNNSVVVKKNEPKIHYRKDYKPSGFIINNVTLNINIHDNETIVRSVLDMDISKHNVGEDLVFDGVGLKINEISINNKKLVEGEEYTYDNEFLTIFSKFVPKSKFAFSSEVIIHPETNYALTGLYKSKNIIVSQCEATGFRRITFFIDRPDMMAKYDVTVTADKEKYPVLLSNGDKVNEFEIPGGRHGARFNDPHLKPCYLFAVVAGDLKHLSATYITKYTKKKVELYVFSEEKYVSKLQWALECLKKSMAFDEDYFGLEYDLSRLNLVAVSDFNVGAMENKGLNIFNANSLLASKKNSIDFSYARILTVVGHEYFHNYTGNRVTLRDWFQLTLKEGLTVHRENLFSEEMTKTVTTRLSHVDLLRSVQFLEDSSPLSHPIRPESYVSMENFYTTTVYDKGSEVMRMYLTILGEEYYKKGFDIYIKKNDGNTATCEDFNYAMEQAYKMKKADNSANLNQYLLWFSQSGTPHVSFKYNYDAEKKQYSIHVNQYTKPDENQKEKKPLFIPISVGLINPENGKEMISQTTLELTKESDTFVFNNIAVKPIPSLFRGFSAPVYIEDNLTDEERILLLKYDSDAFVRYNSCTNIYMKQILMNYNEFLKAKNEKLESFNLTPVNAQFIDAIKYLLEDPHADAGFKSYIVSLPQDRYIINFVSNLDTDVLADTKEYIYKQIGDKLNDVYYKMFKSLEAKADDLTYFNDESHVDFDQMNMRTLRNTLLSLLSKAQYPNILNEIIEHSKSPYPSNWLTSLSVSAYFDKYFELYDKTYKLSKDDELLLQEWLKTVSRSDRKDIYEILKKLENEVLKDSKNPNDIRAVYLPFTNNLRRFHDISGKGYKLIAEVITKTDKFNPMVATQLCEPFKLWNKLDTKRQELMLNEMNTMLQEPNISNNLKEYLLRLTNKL

[18] = target: T5, Neuropeptide Y receptor type 2 (Homo sapiens, UniProt P49146); assay: Fluorescence-based cell-based high-throughput dose response assay for agonists of NPY-Y2. [Related pubchem assays: 1703 (Screening assay (CNGC inhibitors).), 1359 (Screening assay (NPY-Y2 potentiators or agonists).), 1304 (Screening assay (NPY-Y1 potentiators or agonists).), 1710 (Screening assay (NPY-Y2 agonists).), 1791 (Summary AID.)]; assay type: functional
T5 sequence (P49146 whole entry, the tested form may be a part): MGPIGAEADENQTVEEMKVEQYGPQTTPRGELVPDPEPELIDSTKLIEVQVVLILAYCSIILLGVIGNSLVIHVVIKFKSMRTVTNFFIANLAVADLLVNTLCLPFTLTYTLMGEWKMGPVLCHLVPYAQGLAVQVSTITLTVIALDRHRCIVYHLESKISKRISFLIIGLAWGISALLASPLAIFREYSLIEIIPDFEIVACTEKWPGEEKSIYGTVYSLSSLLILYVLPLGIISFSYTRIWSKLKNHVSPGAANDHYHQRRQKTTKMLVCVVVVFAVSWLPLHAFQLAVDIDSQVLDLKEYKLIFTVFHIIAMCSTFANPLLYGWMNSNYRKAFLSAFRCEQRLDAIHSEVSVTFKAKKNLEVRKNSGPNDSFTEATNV

[19] = HIV-1 AD8 envelope cell-cell fusion blockers – cherry-pick, dose response (AID 652062); assay type: functional, cell-based;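 also: luciferase signal from cell-cell fusion driven by HIV-1 clade B AD8 Env; potency is for inhibitors of fusion seen as a drop in luminescence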
[20] = Luminescence Cell-Based Dose Response HTS to Identify Inhibitors of 5'UTR Stem-Loop Driven Prion Protein mRNA Translation in H4 Neuroglioblastoma Cells. [Related pubchem assays: 1827 (Project Summary), 1813 (Primary HTS)]; assay type: functional
[21] = blockers of HIV-1 envelope-mediated cell-cell fusion – cherry-pick, dose response (AID 652057); assay type: functional, cell-based
[22] = target: G2/mitotic-specific cyclin-B1 (Homo sapiens, UniProt P14635); assay: Counterscreen assay for inhibitors of Wee1 degradation: dose response cell-based assay to identify inhibitors of cyclin B degradation. [Related pubchem assays: 1410, 1321 ]; assay type: functional
[23] = blockers of HIV-1 ZM109 envelope-driven cell-cell fusion – HeLa effector, CEM target cells, luciferase, cherry-pick, dose response (AID 652058); assay type: functional, cell-based;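 also: luciferase signal from HIV-1 Env mediated cell-cell fusion of effector and target cells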
[24] = alpha-synuclein stem-loop luciferase translation blockers – H4 neuroglioma cells, luminescence, confirmation (AID 1988); assay type: functional, cell-based
[25] = off-target signal loss in HeLa-CEM21 co-culture – HeLa F-luc CTL cells, cherry-picked, counter-screen for HIV-1 Env fusion inhibitor project, dose response (AID 652040); assay type: functional, cell-based;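 also: potency for signal decrease marking cytotoxic or nonspecific inhibition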
[26] = target: Wee1-like protein kinase (Homo sapiens, UniProt P30291); assay: Dose Response Cell-based Assay for Inhibitors of Wee1 Degradation. [Related pubchem assays: 1410, 1321 ]; assay type: functional
Chain of Wee1-like protein kinase (P30291 whole entry): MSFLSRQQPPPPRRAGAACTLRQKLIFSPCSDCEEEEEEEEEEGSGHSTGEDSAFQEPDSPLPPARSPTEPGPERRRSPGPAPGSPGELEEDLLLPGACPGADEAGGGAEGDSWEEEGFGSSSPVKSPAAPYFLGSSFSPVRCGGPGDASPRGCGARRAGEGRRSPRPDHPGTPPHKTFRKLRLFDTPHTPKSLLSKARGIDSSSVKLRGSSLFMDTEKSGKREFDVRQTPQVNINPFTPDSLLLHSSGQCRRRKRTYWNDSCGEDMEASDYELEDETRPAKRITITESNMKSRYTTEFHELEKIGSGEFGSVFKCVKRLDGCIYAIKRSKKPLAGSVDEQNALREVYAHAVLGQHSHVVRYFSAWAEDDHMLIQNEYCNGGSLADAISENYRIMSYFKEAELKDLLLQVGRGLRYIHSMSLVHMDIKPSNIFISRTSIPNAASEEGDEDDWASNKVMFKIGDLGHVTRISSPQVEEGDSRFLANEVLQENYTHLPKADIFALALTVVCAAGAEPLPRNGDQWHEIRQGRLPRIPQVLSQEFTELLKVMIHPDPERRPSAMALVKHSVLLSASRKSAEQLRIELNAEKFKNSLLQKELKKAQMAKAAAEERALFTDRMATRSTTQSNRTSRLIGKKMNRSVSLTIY

[27] = luciferase reporter signal suppression in cells – H4 neuroglioma cells, luminescence, dose response (AID 1990); assay type: functional, cell-based
[28] = target: Serine/threonine-protein phosphatase PP1-alpha catalytic subunit (Homo sapiens, UniProt P62136); assay: inhibition of protein phosphatase 1 activity – biochemical, fluorescence, dose response (AID 2403);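 also: phosphatase turnover of OMFP into fluorescent 3-O-methylfluorescein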
Chain of Serine/threonine-protein phosphatase PP1-alpha catalytic subunit (P62136 whole entry): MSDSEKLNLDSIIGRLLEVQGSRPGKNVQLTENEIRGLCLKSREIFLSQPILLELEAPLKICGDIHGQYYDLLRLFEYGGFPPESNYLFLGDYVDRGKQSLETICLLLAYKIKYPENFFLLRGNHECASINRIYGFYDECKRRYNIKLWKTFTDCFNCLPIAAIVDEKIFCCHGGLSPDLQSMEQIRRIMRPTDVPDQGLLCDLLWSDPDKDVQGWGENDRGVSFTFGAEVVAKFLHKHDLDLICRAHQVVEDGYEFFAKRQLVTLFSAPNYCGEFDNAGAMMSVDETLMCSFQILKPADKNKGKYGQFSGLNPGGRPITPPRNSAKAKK

[29] = target: Serine/threonine-protein phosphatase (Homo sapiens, UniProt Q9BPW0); assay: Counterscreen for inhibitors of PP1: fluorescence-based biochemical high throughput dose response assay to identify inhibitors of Protein Phosphatase 5 (PP5). [Related pubchem assays: 2034 (Summary (PP5 inhibitors)), 1987 (PP5 inhibitors in singlate), 2235 (PP1 inhibitors in singlate)]
[30] = target: Neuropeptides B/W receptor type 1 (Homo sapiens, UniProt P48145); assay: Fluorescence-based dose response cell-based high throughput screening assay to identify antagonists of the G-protein coupled receptor 7 (GPR7). [Related pubchem assays: 1952 (Screening assay (GPR7 antagonists).), 1880 (Summary AID.)]; assay type: functional
[31] = target: Melanin-concentrating hormone receptor 1 (Homo sapiens, UniProt Q99705); assay: Fluorescence-based counterscreen for antagonists of the G-protein coupled receptor 7 (GPR7): cell-based high throughput dose response assay to identify antagonists of the melanin-concentrating hormone receptor 1 (MCHR1).; assay type: functional
Chain of Melanin-concentrating hormone receptor 1 (Q99705 whole entry): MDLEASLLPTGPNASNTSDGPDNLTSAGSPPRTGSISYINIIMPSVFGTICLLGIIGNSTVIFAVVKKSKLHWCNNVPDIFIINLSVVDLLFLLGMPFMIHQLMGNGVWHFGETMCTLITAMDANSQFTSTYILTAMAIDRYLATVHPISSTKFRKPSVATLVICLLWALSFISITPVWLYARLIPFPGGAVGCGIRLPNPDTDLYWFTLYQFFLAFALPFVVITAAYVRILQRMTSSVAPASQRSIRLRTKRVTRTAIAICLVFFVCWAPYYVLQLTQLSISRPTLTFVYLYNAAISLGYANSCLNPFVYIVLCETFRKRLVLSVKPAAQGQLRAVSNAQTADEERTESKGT

[32] = test system: HEK293; assay: Fluorescence-based counterscreen for potentiators or agonists of NPY-Y1: cell-based high-throughput dose response assay for inhibitors of cyclic nucleotide gated ion channel (CNGC) activity. In this assay, the parental HEK293 cell line transfected with a cyclic-nucleotide gated ion channel (CNGC)-based cAMP sensor is used to measure inhibition of isoproterenol-induced CNGC …; assay type: functional; settings: Homo sapiens
[33] = target: T3, Neuropeptide Y receptor type 1; assay: Fluorescence-based dose response cell-based high-throughput screening assay for agonists of NPY-Y1. [Related pubchem assays: 1697 (Screening assay (NPY-Y1 agonists).), 1359 (Screening assay (NPY-Y2 potentiators or agonists).), 1304 (Screening assay (NPY-Y1 potentiators or agonists).), 1704 (Screening assay (CNGC inhibitors).), 1791 (Summary AID.)]; assay type: functional
[34] = target: T5, Neuropeptide Y receptor type 2; assay: Fluorescence-based counterscreen for agonists of NPY-Y1: cell-based high-throughput dose response assay for agonists of NPY-Y2.; assay type: functional

For `COc1ccc(CC(=O)Nc2oc(-c3ccccc3)c(-c3ccccc3)c2C#N)cc1`, the IC50 [1] was 1.96 µM (active).

For `CC[C@@H](C)[C@H](NC(=O)OC(C)(C)C)c1nnc(S(=O)(=O)Cc2cc(C)ccc2C)o1`, the EC50 [2] was > 150 µM (not active), the AC50 [3] was 45.1 µM (active) and the IC50 [4] was 3.33 µM (active). For the same molecule, the AC50 [5] was 15.4 µM (active), the IC50 [6] was 3.12 µM (active) and the IC50 [7] was 4.12 µM (active). For the same molecule, the EC50 [8] was 3.43 µM (active), the AC50 [9] was 4.36 µM (active) and the IC50 [10] was 15.2 µM (inactive). For the same molecule, the EC50 [11] was 33.5 µM (active), the AC50 [12] was 5.77 µM (active) and the EC50 [13] was 16.2 µM (active).

With `CCOC(=O)N1CCN(c2nc3ccccn3c(=O)c2C=O)CC1` the AC50 [14] was 32.9 µM (active).

For `COc1ccc(CN2C(=O)/C(=C\Nc3ccccc3C(=O)O)c3ccccc3C2=O)cc1`, the EC50 [15] was > 35.4 µM (not active), the EC50 [16] was > 11.8 µM (not active) and the IC50 [17] was 24.7 µM (active). For the same molecule, the EC50 [18] was > 35.4 µM (not active).

In the case of `CCOc1cccc(N(C(=O)Cc2cccs2)C(C(=O)NC2CCCCC2)c2cccn2C)c1` (centres undefined), the AC50 [19] is reported as 42 µM (active), the EC50 [20] is reported as > 120 µM (not active) and the AC50 [21] is reported as 6.74 µM (active). For the same molecule, the EC50 [22] was > 49.7 µM (not active), the AC50 [23] was 24.5 µM (active) and the EC50 [24] was 19.1 µM (active). The AC50 [25] was 55.9 µM (active), the EC50 [26] was > 49.7 µM (not active) and the EC50 [27] was 15.1 µM (active).

With `COc1cnc(-c2ccccn2)nc1Sc1ccc(F)cc1` the IC50 [28] was 7.21 µM (active) and the IC50 [29] was > 67 µM (not active).

With `CCOC(=O)CNC(c1ccccc1)c1cc(Br)ccc1NC(C)=O` (centres undefined) the IC50 [30] was > 43.8 µM (not active) and the IC50 [31] was > 43.8 µM (not active).

In the case of `CN(C)Cc1c(O)ccc2oc(Cc3ccccc3)cc12`, the IC50 [32] is reported as > 35.4 µM (not active), the EC50 [33] is reported as 14.7 µM (not active) and the EC50 [34] is reported as > 35.4 µM (not active).
